Tests used:
[1] = test system: CD31-positive endothelial cells; assay: Immunohistochemical localization of intravenously injected phage (anti-T7 / anti-CD31); format: in vivo, mouse; conditions: phage-displayed peptide, intravenous; 4 to 6 month-old dysplasia-bearing or 9 to 12 month-old tumor-bearing K14-HPV16 mice
From the text: To characterize the nature of the selectivity of the dysplasia- and tumor-homing peptides, K14-HPV16 mice were intravenously injected with cloned phage displaying a particular peptide, and phage localization visualized using histological procedures. Peptide localization was further analyzed with chemically synthesized fluorescein-labeled peptides.
Phage were intravenously injected into 4 to 6 month-old dysplasia-bearing mice with dysplasia-homing phage bearing CSRPRRSEC (SEQ ID NO: 3). In parallel, a set of 9 to 12 month-old tumor-bearing mice were infused with one of the tumor-homing phage CGTKRKC (SEQ ID NO: 11), CGKRK (SEQ ID NO: 6) or CDTRL (SEQ ID NO: 7). Various tissues were collected from each mouse and analyzed by double label immunohistochemical staining using an anti-T7 antibody to detect phage and an anti-CD31 antibody to detect endothelial cells of the vasculature.
(§1) Areas of skin, tumors and various organs were collected and either fixed in formalin, dehydrated through serial alcohols and embedded in paraffin, or directly embedded in OCT medium (Fisher Scientific). K14-HPV16 dysplasia and tumor samples were graded by evaluating hematoxylin & eosin and anti-keratin staining on 5 μm paraffin sections under a light microscope (Coussens et al., supra, 1996). Rat anti-mouse CD31 and rat anti-mouse Meca-32 (BD Pharmingen; San Diego, Calif.) were used for vascular immunostaining on 10 μm frozen sections. Anti-phage staining and biodistribution of fluorescein-labeled peptides were performed essentially as described in Laakkonen et al., supra, 2002.

[2] = test system: K14-HPV16 tumor-derived cell suspension; assay: Ex vivo phage binding to tumor cell suspension; format: cell-based, mouse; conditions: phage-displayed peptide
Protocol: (§2) To isolate peptides specific for dysplastic lesions, two rounds of selection were performed ex vivo followed by one round of selection in vivo. […] Phage selections and validations were performed essentially as described in Laakkonen et al., Nat. Med. 8:751-755 (2002).
(§3) To isolate phage that selectively home to squamous cell carcinomas (SCCs), two rounds of ex vivo panning selections were performed followed by two rounds of in vivo panning in K14-HPV16 mice having tumors histologically confirmed as squamous cell carcinoma grades II-IV (Coussens, supra, 1996). The enrichment rose from 6-fold relative to non-recombinant phage in the second ex vivo round to greater than 70-fold relative to non-recombinant phage in the second in vivo round (the fourth sequential round overall) as shown in FIG. 1B. From 192 sequenced phage clones, fifteen were selected for further analysis based on their frequency (48 from ex vivo round 2, 48 from in vivo round 1, and 96 from in vivo round 2) and their increased prevalence in the in vivo selections. Of these, four clones displaying the following amino acid sequences bound to a K14-HPV16 tumor-derived cell suspension ex vivo: CGKRK (SEQ ID NO: 6), CGTKRKC (SEQ ID NO: 11), CDTAVVEGL (SEQ ID NO: 12) and CDTRL (SEQ ID NO: 7). Phage-displaying the sequence CDTAVVEGL (SEQ ID NO: 12) also were 340-fold enriched in tumors in vivo relative to non-recombinant control phage.

squamous cell carcinomas = assay: In vivo homing of individual phage clones to skin tumors of K14-HPV16 mice; parameters: species or system mouse; conditions: phage-displayed peptide, intravenous injection, tumor-bearing K14-HPV16 mice
From the text: (§4) To test homing specificity of the selected peptides, purified phage displaying a single recombinant sequence were intravenously injected into K14HPV16 mice bearing protuberant ear or trunk tumors at 9 to 12 months of age to assess homing to squamous cell carcinomas, or alternatively injected into younger K14HPV16 mice presenting with multifocal dysplasias but no tumors. Both neoplastic tissues and normal control organs were collected and assayed for phage accumulation. Phage displaying the peptide CRAKSKVAC (SEQ ID NO: 9), which appeared with the highest frequency in both the ex vivo and in vivo sequence pools (5 and 15 times, respectively), were 1500-fold enriched in dysplastic skin relative to non-recombinant control phage. However, phage displaying peptide. […] Several other dysplasia-selected clones also differentiated poorly between control tissues and dysplastic skin; seven of the nine dysplasia-selected phage clones appeared to be responsible for the overall enrichment of recombinant phage in control tissues in the final in vivo round of selection as shown in FIG. 1A (right panel), and were not studied further.
as §3

[3] = test system: PDSC5, a K14-HPV16 tumor-derived cell line; assay: Fluorescein-labeled peptide homing, PDSC5 subcutaneous transplant tumor; format: in vivo, mouse; conditions: intravenous, subcutaneous tumor in FVB/n mice
Protocol: (§5) To analyze homing selectivity, the K14-HPV16 squamous cell cancer-homing peptides, CGKRK (SEQ ID NO: 6) and CDTRL (SEQ ID NO: 7), were analyzed for the ability to home to endothelium in tumors of different tissue origins and in tumors localized to different anatomical locations. In particular, three subcutaneously implanted tumors and two tumors produced in transgenic animal models were examined for accumulation of fluorescein-labeled peptides following intravenous injection
(§6) RIP1-Tag2 mice were used at 12 weeks of age, at which time all mice had pancreatic islet tumors. MMTV-PyMT mice were 4 to 6 months old and carried palpable mammary tumors. Cells for subcutaneous inoculation to produce transplant tumors were cultured in 10% fetal calf serum (FCS) in Dulbecco's Modified Eagle's Media (DMEM). Tumors were generated by subcutaneously injecting 10^6 cells into the chest skin of FVB/n (PDSC5) or Balb/c nude (MDA-MB-435 and C8161) mice. Mice bearing subcutaneous transplant tumors had tumors with an approximate diameter of 1 centimeter. PDSC5 tumors and MDA-MB-435 xenografts reached this size about 9 weeks post-injection while C8161 xenografts reached a size of 1 cm about three weeks post-injection.

cultured tumor cells = assay: Binding to cultured tumor cells; format: cell-based
[4] = test system: dysplastic skin vasculature and tumor vasculature; assay: Localization of intravenously injected fluorescein-labeled peptides in K14-HPV16 mice (Meca-32 staining); format: in vivo, mouse; conditions: intravenous, 10 minutes; for peptide localization in dysplastic skin of tumor-bearing mice / peptide localization in squamous tumor: tumor-bearing K14-HPV16 mice; for peptide localization in dysplastic skin of non-tumor-bearing mice: younger dysplasia-bearing K14-HPV16 mice
Protocol: Both younger dysplasia-bearing and older tumor-bearing K14-HPV16 mice were injected with fluorescein-labeled peptides. After 10 minutes, both normal and neoplastic tissues were collected; tissue sections were prepared and stained with antibodies to both CD31 and a second endothelial marker, the cell-surface antigen Meca-32. Similar results were obtained with the two endothelial marker antibodies; the data for Meca-32 are shown in FIG. 3, in which localization of intravenously infused peptides and antibody was visualized by two-color fluorescence microscopy.
as §1

[5] = test system: MDA-MB-435 human breast cancer line; assay: Fluorescein-labeled peptide homing, MDA-MB-435 xenograft; format: in vivo, mouse; conditions: for homing to MDA-MB-435 xenograft: intravenous, subcutaneous tumor in Balb/c nude mice
Protocol: as §5, §6

[6] = test system: breast carcinomas in the MMTV-PyMT transgenic mouse model; assay: Fluorescein-labeled peptide homing, MMTV-PyMT transgenic model; format: in vivo; conditions: intravenous
Protocol: as §5, §6

[7] = test system: C8161 human melanoma line; assay: Fluorescein-labeled peptide homing, C8161 xenograft; format: in vivo, mouse; conditions: intravenous, subcutaneous tumor in Balb/c nude mice
Protocol: as §5, §6

[8] = test system: normal skin and control tissues; assay: In vivo phage accumulation in normal skin, hyperplastic skin and control organs; parameters: species or system mouse; conditions: phage-displayed peptide; for homing to normal skin of FVB/n mice: wild-type FVB/n mice; for accumulation in control tissues / normal organs: intravenous injection
From the text: as §4

[9] = test system: angiogenic islets (dysplasias) or tumors in the RIP-Tag transgenic mouse model of pancreatic islet cell carcinoma; assay: Fluorescein-labeled peptide homing, RIP-Tag transgenic model; format: in vivo; conditions: intravenous
Protocol: as §5, §6

dysplastic skin lesions = assay: In vivo homing of individual phage clones to dysplastic skin of K14HPV16 mice; parameters: species or system mouse; conditions: phage-displayed peptide, intravenous injection
Protocol: as §2, §4

[10] = test system: hyperplastic skin of 1 to 2 month-old K14-HPV16 mice; assay: Ex vivo phage binding to hyperplastic skin; format: cell-based, mouse; conditions: phage-displayed peptide
mitochondrial membranes = conditions: at a concentration of 10 μM; cited from earlier work

Row | Substance | tissue localization of phage by immunohistochemical staining [1] | binding to K14-HPV16 tumor-derived cell suspension ex vivo [2] | homing to tumor (squamous cell carcinomas) | peptide localization in dysplastic skin of tumor-bearing mice [4] | peptide localization in squamous tumor [4] | peptide localization in dysplastic skin of non-tumor-bearing mice [4] | homing to angiogenic islets or tumors of RIP-Tag mice [9] | homing to dysplastic skin (dysplastic skin lesions) | accumulation in control tissues / normal organs [8] | other results
1 | CGTKRKC (phage-displayed) | detected to a lesser extent in dysplastic skin of tumor-bearing mice | bound |  |  |  |  |  |  |  | 
2 | CDTAVVEGL (phage-displayed) |  | bound |  |  |  |  |  |  |  | enrichment in tumors in vivo relative to non-recombinant control phage (squamous cell carcinomas): 340 fold
3 | CDTRL [tumor-homing peptide] | localized to large, dilated vessels throughout the dysplastic and hyperplastic skin | bound | variable preference for squamous cell carcinomas and dysplastic lesions | at lower levels | primarily detected in tumor vasculature | not detected in the dysplastic skin of younger non-tumor bearing mice | neither peptide CGKRK (SEQ ID NO: 6) nor CDTRL (SEQ ID NO: 7) homed to angiogenic islets (dysplasias) or tumors |  |  | homing to PDSC5 transplant tumor [3]: accumulated only in the melanoma xenografts; binding to cultured tumor cells (cultured tumor cells): bind a range of cultured tumor cells; homing to MDA-MB-435 xenograft [5]: accumulated only in the melanoma xenografts; homing to MMTV-PyMT breast carcinomas [6]: did home to breast carcinomas; homing to C8161 melanoma xenograft [7]: accumulated only in the melanoma xenografts; affinity for hyperplastic skin ([8]; in vivo, K14-HPV16 mice): little affinity for hyperplastic skin; homing to normal skin of FVB/n mice ([8]; in vivo): no significant homing to normal skin
4 | CSRPRRSEC [dysplasia-homing peptide from CX7C library] | accumulated in dysplastic skin |  | little homing to the tumor | co-localized with Meca-32 in dysplastic skin vasculature | not detected within the squamous tumor | co-localized with Meca-32 in dysplastic skin vasculature | does not recognize pre-malignant lesions | effectively homed to dysplastic chest skin and dysplastic ear skin | did not significantly accumulate in control tissues | enrichment in dysplastic skin relative to non-recombinant control phage (dysplastic skin lesions): ~350 fold; homing to dysplastic skin (dysplastic skin lesions; listed as CSRPRRSRC): maintained the ability to home; binding to hyperplastic skin ex vivo [10]: did not bind to hyperplastic skin; homing to normal skin of FVB/n mice ([8]; in vivo): did not home to normal skin of FVB/n mice
5 | D(KLAKLAK)2 |  |  |  |  |  |  |  |  |  | mitochondrial swelling (mitochondrial membranes): marked mitochondrial swelling
6 | CNRRTKAGC (phage-displayed) |  |  |  |  |  |  |  | highly selective for dysplastic skin | did not appreciably home to normal organs | 
7 | CRAKSKVAC (phage-displayed) |  |  |  |  |  |  |  |  | accumulated with similar frequency in normal skin, kidney and brain | enrichment in dysplastic skin relative to non-recombinant control phage (dysplastic skin lesions): 1500 fold
8 | CGKRK [tumor-homing peptide] | accumulated in tumor tissue | bound | marked preference for the tumor | at lower levels | primarily detected in tumor vasculature | not detected in the dysplastic skin of younger non-tumor bearing mice | neither peptide CGKRK (SEQ ID NO: 6) nor CDTRL (SEQ ID NO: 7) homed to angiogenic islets (dysplasias) or tumors | Some homing to dysplastic lesions | very low levels | enrichment in tumors in vivo relative to non-recombinant control phage (squamous cell carcinomas): 80 to 1,000 fold; homing to PDSC5 transplant tumor [3]: homed to cells in each of the three transplant tumors; binding to cultured tumor cells (cultured tumor cells): bind a range of cultured tumor cells; subcellular localization in vascular cells ([5]; FIG. 4D, endothelial cells (CD31, Meca-32)): localized in the cytoplasm and nuclei of vascular cells; homing to MDA-MB-435 xenograft [5]: homed to cells in each of the three transplant tumors; homing to MMTV-PyMT breast carcinomas [6]: did home to breast carcinomas; homing to C8161 melanoma xenograft [7]: homed to cells in each of the three transplant tumors

— US8598316B2, “Molecules that selectively home to vasculature of pre-malignant dysplastic lesions or malignancies” (priority 2003, dated 2013)
